Source: publication PMC7890096, “Binding of non-canonical peptidoglycan controls Vibrio cholerae broad spectrum racemase activity” (Computational and Structural Biotechnology Journal, 2021)

System: BsrV
Assay: in vitro BsrV racemase assay (L-Ala substrate) with muropeptides, Marfey's/HPLC
Format: biochemical, Vibrio cholerae
Conditions: 4 mM L-Ala, 5 min at 37 °C, Bicarbonate buffer 50 mM pH 9, Fig. 3A; for inhibition of BsrV D-Ala production, in words: D-cycloserine 0.1 mM, tripeptide and D-Ala-D-Ala at equal concentration (amino acid, tripeptide/dipeptide), p dipeptide vs tripeptide = 0.0181, tripeptide vs M4 = 0.0027, M3R vs D-cycloserine < 0.0001
Protocol: For activity assays, in vitro LAA and DAAS were characterized with Marfey’s (FDAA)-derivatization in HPLC and DAAO assay (D-amino acid oxidase) performed as described. The product from a racemization reaction was derivatized with L-FDAA (1-fluoro-2-4-dinitrophenyl-5-L-alanine amide, Marfey’s reagent, Thermo Scientific). First, an equal volume of NaHCO3 0.5 M was added to the racemization reaction; then, 6 µL of this reaction was reacted with FDAA (10 mg/mL in acetone) at 80 °C for 3 min. The reaction was stopped with HCl 2 N and the samples were filtered. The products were separated with a linear gradient of triethylamine phosphate/acetonitrile in HPLC with an Aeris peptide column (250 × 4.6 mm; 3.6 μm particle size) (Phenomenex, USA) and detected at Abs.340 nm. To determine the inhibition effect of the sacculus in BsrV's activity, 35 µg of sacculi were incubated for 5 min at 37 °C with BsrV and 4 mM of L-Ala in Tris-HCl 50 mM pH 8. […] DAAO reaction was determined by coupling 10 µL of the extract into 150 µL of a reaction containing: sodium phosphate buffer 100 mM pH 7, Trigonopsis variabilis D-amino acid oxidase (DAAO) (Komarova et al., 2012) 3.6 U/ml, horseradish peroxidase 1 U/mL, o-phenylenediamine (OPD) 2 mg/mL and FAD 3 mg/ml. This two-step assay permits the quantification of H2O2 (DAAO is able to produce α-ketoacid, NH3 and H2O2 from DAA). Peroxidase reduces H2O2, […], leading to the production of 2,3–25 diaminophenazine. The reaction was incubated for 2 h at 37 °C and inactivated with HCl 3 M, giving a colorimetric product that can be measured at 492 nm. To determine the inhibition effect of muropeptides in BsrV's activity, 0.1 mM of M4 (GlcNAc-MurNAc-Ala-Glu-DAP (Diaminopimelate)-Ala), M3M (GlcNAc-MurNAc-Ala-Glu-DAP-Met), M3R (GlcNAc-MurNAc-Ala-Glu-DAP-Arg) and D-cycloserine were incubated with BsrV and 4 mM of L-Ala for 5 min at 37 °C (1/40 relation) in Bicarbonate buffer 50 mM pH 9. In the case of tripeptide and D-Ala-D-Ala, equal concentration (amino acid, tripeptide/dipeptide) was utilized.
Fig. 3 Peptidoglycan inhibits BsrV’s activity. (A) Inhibitory effect of muropeptides on BsrV activity. In vitro BsrV racemase assays with L-Ala as substrate in the presence of (see schematics): M4 (disaccharide tetrapeptide), M3M and M3R; the asterisk represents D-Met and D-Arg substitutions in the fourth position. […] P values: [dipeptide vs tripeptide] = 0.0181; [tripeptidevsM4] = 0.0027; [M4vsM3M] = 0.0003; [M4vsM3R] < 0.0003; [M3MvsM3R] = 0.2552; [M3RvsD-cycloserine] < 0.0001. (B) Inhibitory effect of peptidoglycan sacculi on BsrV activity. In vitro BsrV racemase assays with L-Ala as substrate in the presence of undigested sacculi (see schematics). Sugar rings are represented by hexagons and peptides are depicted. […]

| Compound | inhibition of BsrV D-Ala production, in words | reduction in D-Ala production (% of inhibition) (0.1 mM muropeptide, Marfey's derivatization, HPLC 340 nm, vs control reaction with no inhibitor, single time point, p M4 vs M3M = 0.0003, M4 vs M3R < 0.0003, M3M vs M3R = 0.2552) |
| --- | --- | --- |
| N[C@@H]1CON=C1O [D-cycloserine] | inhibit the least |  |
| CC(=O)N[C@H]1[C@H](O[C@H]2[C@H](O[C@H](C)C(=O)N[C@@H](C)C(=O)N[C@H](CCC(=O)N[C@@H](CCC[C@@H](N)C(=O)O)C(=O)N[C@H](C)C(=O)O)C(=O)O)[C@@H](NC(C)=O)C(O)O[C@@H]2CO)O[C@H](CO)[C@@H](O)[C@@H]1O (stereo partly drawn) [M4, GlcNAc-MurNAc-Ala-Glu-DAP-Ala] |  | ~ 20% |
| D-Ala-D-Ala [dipeptide] | inhibit the least |  |
| L-Ala-D-Glu-D-Lys [tripeptide] | inhibit the least |  |
